Laboratory results published in patent US20260232633A1, “Compositions and Uses Thereof” (Purposeful IKE, priority 2020, published 2026).
Several values for one entry are separate records, joined by “and”; a condition that tells them apart may be missing. Equal entries are not always repeated.

What was measured:
[1] = tested on: Fmr1 KO mice; assay: Test of daily living (marble burying / nesting); assay type: in vivo; design: scale not given here; conditions: for Tests of daily living: individual animal values
Experimental: (§1) Fmr1 KO mice backcrossed to the FVB strain and WT littermates were used during experiments. TransnetXY Automated Genotyping (www.transnetyx.com/). TRANSNETYX, INC., 8110 Cordova Rd. Suite 119, Cordova, TN 38016, USA was used for genotyping. The animals were pretreated for 14 days. The active ingredients of Sumatriptan and Ergoloid were in a water carrier, whereas oxitriptan was in a methanol carrier.
(§2) The mice were housed in plastic cages (35×30×12 cm), 5 in each. The room temperature (21±2° C.),relative humidity (55±5%), a 12-h light-dark cycle (lights on 7 a.m.-7 p.m.) and air exchange (16 times per h) were automatically controlled. The animals had free access to commercial food pellets and water. Testing was conducted during the light phase. Ten mice per treatment group were used for the AGS experiments. Experiments were conducted in line with the requirements of the UK Animals (Scientific Procedures) Act, 1986.
(§3) All experiments were conducted with the experimenter blind to genotype and drug treatment. Separate investigators prepared and coded dosing solutions, allocated the mice to the study treatment groups, dosed the animals, and collected the Audiogenic Seizure data.
(§4) Behavior testing was conducted at 2 weeks. The behavioral tests were as follows: 1. Hyperactivity: Open field; 2. Stereotypy: Self-grooming; 3. Sociability: Three chamber partition test; 4. Memory and Learning: Novel Object Recognition; 5. Anxiety: hyponeophagia; and 6. Test of daily living: marble burying
For test of daily living, nesting was assessed as nest building is an innate behavior in rodents, even when raised in laboratory settings. Synthetic and/or natural materials (such as twine, tissue, cotton, paper, and hay) are provided as a gauge of their overall well-being and as an ancillary assessment to predict the possible decline in cognition. Typically, changes in nesting behaviors, such as failure to create a nest, indicate a change in health or welfare. In addition, nesting behavior is sensitive to many environmental and physiological challenges, as well as many genetic mutations underlying pathological disease states (Gaskill 2013).
(§5) The treatment of the mice with OX (Oxitriptan), SU (Sumatriptan), ER (Ergoloid mesylates, also referred to as ergoloid herein) were according to the matrix shown below in Table 1.
(§6) The experimental procedures described above for Example 1 were used in the following tests, as well as the addition of two further behaviour tests as described below. An SSRI (selective serotonin re-uptake inhibitor) was co-dosed with the ergoloid mesylates and oxitriptan to assess the effect of the ergoloid mesylates and oxitriptan treatment on a subject already receiving SSRI treatment.

[2] = tested on: Fmr1 KO mice; assay: Open field test (hyperactivity); assay type: in vivo
Experimental: as §1, §2
All experiments were conducted with the experimenter blind to genotype and drug treatment. Separate investigators prepared and coded dosing solutions, allocated the mice to the study treatment groups, dosed the animals, and collected the Audiogenic Seizure data. […]
For hyperactivity, the open field test (OFT) is a common measure of exploratory behavior and general activity in both mice and rats, where both the quality and quantity of the activity can be measured. […]

[3] = tested on: Fmr1 KO mice; assay: Sociability: three chamber partition test; assay type: in vivo; design: unit not given here; conditions: for Sociability: Mean Diff., F_KO-V vs. F_ treated KO (Dunnett) / Sociability: Mean Diff., F_KO-V vs. N_ treated KO (Dunnett): against F_KO-V; for Sociability: Mean Diff., F_KO-V vs. F_ treated KO (Dunnett): Sumatriptan 20, Oxitriptan 40, Ergoloid 4, Ergoloid 2 + Oxitriptan 40 mg/kg; for Sociability, F_KO / Sociability, N_KO: individual animal values
Experimental: as §1, §2, §3, §4
For sociability a three chamber partition test was utilized. The three-chamber paradigm test known as Crawley's sociability and preference for social novelty protocol has previously been successfully employed to study social affiliation and social memory in several inbred and mutant mouse lines. The main principle of the test was based on the free choice by a subject mouse to spend time in any of three box's compartments during two experimental sessions, including indirect contact with one or two mice with which it was unfamiliar (Kaidanovich-Beilin 2011).
(§7) The treatment of the mice with OX (Oxitriptan), SU (Sumatriptan), ER (Ergoloid mesylates, also referred to as ergoloid herein) were according to the matrix shown below in Table 1. […]

[4] = tested on: FMR1 mice; assay: Behavioral experiments overall (FXS phenotypes); assay type: in vivo
Experimental: as §1, §4, §5
as §6, with “treatment. […]” for “treatment.”

[5] = tested on: Fmr1 KO mice; assay: Anxiety: hyponeophagia test; assay type: in vivo
Experimental: as §1, §2, §3
Behavior testing was conducted at 2 weeks. […]
For anxiety a hyponeophagia test was conducted. […] The amounts ingested then gradually increase until the animal has determined whether the substance is safe and nutritious. […]

[6] = tested on: Fmr1 KO mice; assay: Memory and learning: Novel Object Recognition (NOR); assay type: in vivo; design: unit not given here; conditions: for NOR: Mean Diff., F_KO-V vs. F_ treated KO (Dunnett) / NOR: Mean 2 (mean of F_ treated KO group): F_ values; for NOR: Mean Diff., F_KO-V vs. F_ treated KO (Dunnett) / NOR: Mean Diff., F_KO-V vs. N_ treated KO (Dunnett): against F_KO-V; for NOR: Mean Diff., F_KO-V vs. F_ treated KO (Dunnett): Sumatriptan 20, Oxitriptan 40, Ergoloid 4, Ergoloid 2 + Oxitriptan 40 mg/kg; for Novel Object Recognition, F_KO / Novel Object Recognition, N_KO: individual animal values
Experimental: as §1, §2, §3, §4
For memory and learning, a novel object recognition (NOR) task was used to evaluate the rodents' ability to recognize a novel object in the environment. […] The task procedure consists of three phases: habituation, familiarization, and test phase (Antunes 2012).
as §7

[7] = Jacobsen J P R 2016; cited from earlier work
[8] = tested on: Fmr1 KO mice; assay: Stereotypy: self-grooming; assay type: in vivo; conditions: for Stereotypy: Mean 2 (mean of treated KO group): Table 8, KO-V mean 45.40, WT-V 31.60, doses as E19
Experimental: as §1, §2, §3, §4
For stereotypy, self-grooming was assessed. Self-grooming in animals is an innate behaviour that is involved in hygiene maintenance and other physiologically important processes, including thermoregulation, social communication and de-arousal. It is one of the most frequently observed behaviours in awake rodents and has a patterned, sequential organization with characteristic cephalocaudal progression (Kalueff 2016).
as §7

[9] = Table 4, WT-V mean 4.800, KO-V 1.200, doses as E7
[10] = Table 10, KO-V mean 1.200, doses as E25
[11] = Table 12, N_ values, F_KO-V mean 81.60, doses as E34
[12] = Table 11, F_KO-V mean 6.600, doses as E28
[13] = against KO-V, Sumatriptan 20, Oxitriptan 40, Ergoloid 4, Ergoloid 2 + Oxitriptan 40 mg/kg
[14] = against WT-V, Sumatriptan 20, Oxitriptan 40, Ergoloid 4, Ergoloid 2 + Sumatriptan 10, Ergoloid 2 + Oxitriptan 40 mg/kg
[15] = N_ values, against N_WT-V, Sumatriptan 20, Oxitriptan 40, Ergoloid 4, Ergoloid 2 + Sumatriptan 10, Ergoloid 2 + Oxitriptan 40 mg/kg

Structure (SMILES): N[C@@H](Cc1c[nH]c2ccc(O)cc12)C(=O)O [Oxitriptan, 2-amino-3-(5-hydroxy-1H-indol-3-yl)propanoic acid]
- Tests of daily living ([1]; KO-Oxitriptan (40 mg/kg)): 5 (9×) and 4
- Test of daily living: Mean 2 (mean of treated KO group) [1, 9]: 4.900
- Test of daily living: Mean 2 (mean of treated KO group) [1, 10]: 4.900
- Open Field: Mean Diff., WT-V vs. treated KO (Dunnett) ([2]; against WT-V, 14 days QD, Sumatriptan 20, 5-HTP 80, EM 4, Ergoloid 2 + Sumatriptan 10, Ergoloid 2 + Oxitriptan 40 mg/kg): −512.4
- Sociability: Mean Diff., F_KO-V vs. F_ treated KO (Dunnett) ([3]; F_ values): 29.51
- Sociability, F_KO ([3]; F_KO-Oxitriptan (40 mg/kg)): 51 (2×) and 54 and 52 (2×) and 50 (2×) and 53 (2×) and 55
- Sociability: Mean Diff., F_KO-V vs. N_ treated KO (Dunnett) ([3]; N_ values, doses as E34): −17.20
- Sociability, N_KO ([3]; N_KO-Oxitriptan (40 mg/kg)): 98 (2×) and 97 (2×) and 100 (2×) and 99 (2×) and 96
- Sociability: Mean 2 (mean of N_ treated KO group) [3, 11]: 98.80
- Effect on FXS phenotypes in the behavioral experiments (Example 1) [4]: ameliorates the FXS phenotypes
- Hyponeophagia ([5]; KO-Oxitriptan (40 mg/kg), individual animal values): 150 and 140 (2×)
- NOR: Mean Diff., F_KO-V vs. F_ treated KO (Dunnett) [6]: −0.03636
- Novel Object Recognition, F_KO ([6]; F_KO-Oxitriptan (40 mg/kg)): 6 (4×) and 5 (3×) and 9 (2×) and 8 (2×)
- NOR: Mean Diff., F_KO-V vs. N_ treated KO (Dunnett) ([6]; N_ values, doses as E28): −4.218
- Novel Object Recognition, N_KO ([6]; N_KO-Oxitriptan (40 mg/kg)): 10 (4×) and 12 and 14 and 8 (2×) and 15 and 13 and 9
- NOR: Mean 2 (mean of F_ treated KO group) [6, 12]: 6.636
- half life [7]: 2 h
- Stereotypy: Mean 2 (mean of treated KO group) [8]: 38.30

Structure (SMILES): CNS(=O)(=O)Cc1ccc2[nH]cc(CCN(C)C)c2c1 [Sumatriptan]
- Tests of daily living ([1]; KO-Sumatriptan (20 mg/kg)): 5 (7×) and 4 (3×)
- Test of daily living: Mean 2 (mean of treated KO group) [1, 9]: 4.700
- Test of daily living: Mean 2 (mean of treated KO group) [1, 10]: 4.700
- Test of daily living: Mean Diff., KO-V vs. treated KO (Dunnett) [1, 13]: −3.500
- Test of daily living: Mean Diff., WT-V vs. treated KO (Dunnett) [1, 14]: 0.1000
- Open Field: Mean Diff., KO-V vs. treated KO (Dunnett) ([2]; against KO-V, Sumatriptan 20, Oxitriptan 80, Ergoloid 4, Ergoloid 2 + Oxitriptan 40 mg/kg): 846.6
- Sociability: Mean Diff., F_KO-V vs. F_ treated KO (Dunnett) ([3]; F_ values): 19.40
- Sociability, F_KO ([3]; F_KO-Sumatriptan (20 mg/kg)): 61 (2×) and 64 and 65 (2×) and 60 (3×) and 63 (2×)
- Sociability: Mean Diff., F_KO-V vs. N_ treated KO (Dunnett) ([3]; N_ values, doses as E34): −16.60
- Sociability: Mean Diff., N_WT-V vs. N_ treated KO (Dunnett) [3, 15]: 0.9000
- Sociability, N_KO ([3]; N_KO-Sumatriptan (20 mg/kg)): 99 and 97 (2×) and 103 and 98 and 90 and 102 and 100 and 95 and 101
- Sociability: Mean 2 (mean of N_ treated KO group) ([3]; Table 6, N_WT-V mean 99.10, N_KO-V 83.90, doses as E13): 98.20
- Sociability: Mean 2 (mean of F_ treated KO group) ([3]; Table 12, F_ values, F_KO-V mean 81.60, doses as E34): 62.20
- Sociability: Mean 2 (mean of N_ treated KO group) [3, 11]: 98.20
- Hyponeophagia: Mean Diff., WT-V vs. treated KO (Dunnett) [5, 14]: −9.200
- NOR: Mean Diff., F_KO-V vs. F_ treated KO (Dunnett) [6]: −0.2000
- Novel Object Recognition, F_KO ([6]; F_KO-Sumatriptan (20 mg/kg)): 9 (2×) and 5 (2×) and 8 (2×) and 7 (2×) and 4 and 6
- NOR: Mean Diff., F_KO-V vs. N_ treated KO (Dunnett) ([6]; N_ values, doses as E28): −0.7000
- NOR: Mean Diff., N_WT-V vs. N_ treated KO (Dunnett) [6, 15]: 6.600
- Novel Object Recognition, N_KO ([6]; N_KO-Sumatriptan (20 mg/kg)): 6 (3×) and 8 (2×) and 9 (3×) and 5 and 7
- NOR: Mean 2 (mean of N_ treated KO group) ([6]; Table 5, N_WT-V mean 13.90, N_KO-V 6.700, doses as E10): 7.300
- NOR: Mean 2 (mean of F_ treated KO group) [6, 12]: 6.800
- NOR: Mean 2 (mean of N_ treated KO group) ([6]; Table 11, N_ values, F_KO-V mean 6.600, doses as E28): 7.300
- Stereotypy: Mean 2 (mean of treated KO group) [8]: 30.90
- Stereotypy: Mean Diff., KO-V vs. treated KO (Dunnett) [8, 13]: 14.50
